The source of these data is US10596185B2, “Flavonoid compositions and uses thereof” (INGREDIENTS BY NATURE, priority 2014, dated 2020).

One assay deals with NF-kB. In words: NF-kB-luciferase assay system in C2C12 cell line. It counts as cell-based. Particulars: for Compare quercetin (EC50 NF-kB): NF-kB inhibitory activity relative to quercetin. The method, then: Activity of the complex was measured using a C2C12 cell line with a NF-kB-luciferase assay system (Affymetrix, Santa Clara, Calif.), and compared to a number of flavonoid controls.

Assay [1] is described as follows: Total ORACFN (sum over the five reactive species). Particulars: for ORAC-FN: Table 5 summary, total ORACFN, unit not given; for Compare quercetin (ORAC-FN): anti-oxidant activity relative to quercetin. In kind it is biochemical. Details: ORAC-FN: unit not given here. The method, then:
This example describes the anti-oxidant activity of the eriodictyol complex described in Table 1. Anti-oxidant activity was measured using an oxygen radical absorbance capacity assay for food and nutrition ([…]). The assay was performed using techniques known in the art, such as those disclosed in Ou, B. et al., J Agric and Food Chem, 2001, 49 (10): 4619-4626; Huang, D. et al., J Agric and Food Chem, 2002, 50 (7): 1815-1821; Ou, B. et al., J Agric and Food Chem, 2002, 50 (10): 2772-2777; Zhang, L. et al., Free Radic. Bio Med, 2007, 43 (suppl. 1): S17; Dubost, N.J. et al., Food Chem, 2007, 105 (2): 727-735; Zhang, L. et al., J Agric and Food Chem, 2009, 57(7): 2661-2667; and U.S. Pat. No. 7,132,296, the contents of all of which are incorporated herein by reference. The activity of the eriodictyol complex against peroxyl radicals, hydroxyl radicals, peroxynitrite, super oxide anion, and singlet oxygen was measured. The total […] was also measured.

The test system of another assay is IL-6. Kind of assay: IL-6 level in mice fed a high-fat diet. In kind it is in vivo. Particulars: for IL-6: high fat diet mice, mean ± standard deviation. The method, then: (§1) The effects of eriocitrin and eriodictyol on anti-inflammatory markers were determined in mice fed a high-fat diet and compared to negative control, untreated mice that were fed either a standard- or high-fat-diet. Eriocitrin and eriodictyol effects were also compared against ibuprofen- and hesperidin-treated, high-fat-diet-fed mice. The effects of these various treatments on the cytokines IL-6, IL-10, MCP-1, and TNF-alpha are shown below.

A further assay concerns TNF-alpha. In words: TNF-alpha level in mice fed a high-fat diet. In kind it is in vivo. The note with it: mean ± standard deviation. The method, then: as §1
For the next assay, the system named is IL-10. Kind of assay: IL-10 level in mice fed a high-fat diet. In kind it is in vivo. The note with it: mean ± standard deviation. The method, then: as §1
A further assay concerns MCP-1. In words: MCP-1 level in mice fed a high-fat diet. In kind it is in vivo. Particulars: for MCP-1: high fat diet mice, mean ± standard deviation. The method, then:
as §1

Assay [2] in a line: Clinical study of metabolic syndrome symptoms (fasting glucose, insulin, hs-CRP, lipid panel). In kind it is in vivo. Particulars: humans, after 30 days, ≥10 hour fast, versus placebo. The method, then: A clinical study is performed in which subjects undergo a one-week run-in period during which subject document baseline data. Subjects meeting the inclusion/exclusion criteria are enrolled in the study and sent a glucometer to determine their fasting blood glucose levels. Those meeting the study criteria are enrolled in the study.
The subjects fast for at least 10 hours, and their fasting glucose, fasting insulin, hs-CRP levels, and lipid panels (including LDL, HDL, and triglycerides) are measured. Following these baseline measurements, subjects consume (1) 50 mg-2 g/day eriocitrin; (2) 50 mg-2 g/day eriocitrin, 50-250 mg/day neoeriocitrin, 50-250 mg/day hesperidin; or (3) a placebo. After 30 days, the subjects' glucose, insulin, hs-CRP, and lipid panel measurements are taken after a ≥10 hour fast.

[3] abbreviates: Mus musculus, C2C12, Table 5 summary, unit inferred, read-out: EC50 NF-kB.
Where [4] appears, read: Mus musculus, NF-kB inhibition, C2C12 cell line, NF-kB-luciferase, read-out: EC50.
[5] abbreviates: high-fat-diet-fed mice, in words.

What is called EC50 is the midpoint of the concentration-response curve.

In brackets after ≈: the same amount, converted by molar mass. Read-outs that look alike come from different tables or passages of the source. Marks after values point to notes of the source that are not given here.

`COc1ccc(-c2cc(=O)c3c(O)cc(O[C@@H]4O[C@H](CO[C@@H]5O[C@@H](C)[C@H](O)[C@@H](O)[C@H]5O)[C@@H](O)[C@H](O)[C@H]4O)cc3o2)cc1O` [Diosmin]: the EC50 with NF-kB (setting [3]) came to 349 µg/mL (≈ 573 µM). Also, the EC50 in the assay with NF-kB (setting [4]) was found to be 349 µg/mL (≈ 573 µM). Further, the “Compare quercetin (EC50 NF-kB)” value in the assay on NF-kB is 0.07. Besides, in assay [1], the ORAC-FN is recorded as 373 and the “Compare quercetin (ORAC-FN)” value is 0.006.
`C[C@@H]1O[C@@H](OC[C@H]2O[C@@H](Oc3cc(O)c4c(c3)O[C@H](c3ccc(O)c(O)c3)CC4=O)[C@H](O)[C@@H](O)[C@@H]2O)[C@H](O)[C@H](O)[C@H]1O` [Eriocitrin, eriodictyol 7-O-B-rutinoside]: the IL-6 with IL-6 is listed as 3.1 ± 1.6^a. Further, the “IL-6 levels in comparison to the negative controls” value in the assay with IL-6 (setting [5]) is on record as “significantly reduced”. The compound further returned a TNF-alpha in the assay with TNF-alpha of 2.4 ± 0.6. The EC50 in the assay with NF-kB (setting [3]) turned out to be 71.4 µg/mL (≈ 120 µM). Further, the EC50 in the assay with NF-kB (setting [4]) was 71.4 µg/mL (≈ 120 µM). In addition, the “Compare quercetin (EC50 NF-kB)” value in the assay with NF-kB is reported as 0.35. In addition, in assay [1], the ORAC-FN came to 31355 and the “Compare quercetin (ORAC-FN)” value stood at 0.475. The compound further yielded an IL-10 in the assay with IL-10 of 4.0 ± 2.2. In addition, in the assay with MCP-1, the MCP-1 was 19.3 ± 11.1^a. The “MCP-1 levels in comparison to the negative controls” value in the assay with MCP-1 (setting [5]) was “significantly reduced”. In addition, in assay [2], the HDL levels result is “increased”, the LDL levels entry is “reduced”, the glucose levels result is recorded as “reduced” and the hs-CRP levels result is recorded as “reduced”. For the same compound, in assay [2], the insulin levels result is given as “reduced” and the total cholesterol levels entry was “reduced”.
For the compound `COc1ccc([C@@H]2CC(=O)c3c(O)cc(O[C@@H]4O[C@H](CO[C@@H]5O[C@@H](C)[C@H](O)[C@@H](O)[C@H]5O)[C@@H](O)[C@H](O)[C@H]4O)cc3O2)cc1O` [Hesperidin 90, Hesperidin], the EC50 with NF-kB (NF-kB inhibition, C2C12 cell line, NF-kB-luciferase) was determined as 275.70 µg/mL (≈ 452 µM). Moreover, the “Compare quercetin (EC50 NF-kB)” value in the assay on NF-kB worked out at 0.09. Further, the “EC50 NF-kB” value in the assay with NF-kB (Table 5 summary, unit not given, in µg/mL) turned out to be 275.70. Moreover, in assay [1], the ORAC-FN is reported as 6067 and the “Compare quercetin (ORAC-FN)” value was found to be 0.092.
In the case of `COc1ccc([C@@H]2CC(=O)c3c(O)cc(O[C@@H]4O[C@H](CO[C@@H]5O[C@@H](C)[C@H](O)[C@@H](O)[C@H]5O)[C@@H](O)[C@H](O)[C@H]4O)cc3O2)cc1O` [Hesperidin], the IL-6 with IL-6 is on record as 5.9 ± 4.6^a. In the assay with TNF-alpha, this compound displayed a TNF-alpha of 2.7 ± 0.3. For the same compound, the IL-10 in the assay on IL-10 was found to be 5.3 ± 2.4. Further, in the assay on MCP-1, the MCP-1 is recorded as 27.6 ± 9.0^a.
For `COc1ccc([C@@H]2CC(=O)c3c(O)cc(O)cc3O2)cc1O` [Hesperitin 95, Hesperitin], the EC50 in the assay with NF-kB (setting [3]) stood at 54.2 µg/mL (≈ 179 µM). Further, the EC50 in the assay with NF-kB (setting [4]) is 54.2 µg/mL (≈ 179 µM). Further, the “Compare quercetin (EC50 NF-kB)” value with NF-kB is reported as 0.46. Moreover, in assay [1], the ORAC-FN is 77875 and the “Compare quercetin (ORAC-FN)” value is given as 1.180.
For the compound `CC(C)Cc1ccc(C(C)C(=O)O)cc1` (stereo not drawn) [Ibuprofen], the IL-6 in the assay on IL-6 is on record as 21.9 ± 18.1^a. The compound further yielded a TNF-alpha with TNF-alpha of 1.2 ± 2.4. Also, the IL-10 in the assay on IL-10 was determined as 6.0 ± 4.5. Further, the MCP-1 in the assay on MCP-1 is recorded as 43.4 ± 31.5^ab.
As to `O=C1C[C@@H](c2ccc(O)cc2)Oc2cc(O)cc(O)c21` [Naringenin], the EC50 in the assay with NF-kB (setting [3]) and in the assay on NF-kB (setting [4]) was 32 µg/mL (≈ 118 µM) each time. In addition, the “Compare quercetin (EC50 NF-kB)” value in the assay with NF-kB amounted to 0.78. Also, the ORAC-FN in assay [1] turned out to be 59454. Besides, the “Compare quercetin (ORAC-FN)” value in assay [1] was found to be 0.901.
As for `C[C@@H]1O[C@@H](O[C@H]2[C@H](Oc3cc(O)c4c(c3)O[C@H](c3ccc(O)cc3)CC4=O)O[C@H](CO)[C@@H](O)[C@@H]2O)[C@H](O)[C@H](O)[C@H]1O` [Naringin], the EC50 with NF-kB (setting [3]) and in the assay with NF-kB (setting [4]) was 381 µg/mL (≈ 656 µM) throughout. Further, in the assay with NF-kB, the “Compare quercetin (EC50 NF-kB)” value stood at 0.07. Also, the ORAC-FN in assay [1] was 22389. In assay [1], the “Compare quercetin (ORAC-FN)” value is reported as 0.339.
As to `O=c1c(O)c(-c2ccc(O)c(O)c2)oc2cc(O)cc(O)c12` [Quercetin•2H2O], the EC50 in the assay with NF-kB (setting [4]) came to 31.5 µg/mL (≈ 104 µM).
